Values of other authors in patent US20140303105A1, “Primycin and components thereof for use in the treatment or prevention of infections caused by specific pathogens” (PANNONPHARMA GYÓGYSZERGYÁRTÓ ZRT., priority 2011, published 2014).
Converted amounts (≈) assume the structure as drawn. Where two headings read alike, the source gives them in different places.

Tests used:
[1] = tested on: Staphylococcus epidermidis 7586; settings: cited from earlier work
[2] = tested on: Staphylococcus aureus 7503; settings: cited from earlier work
Diphteroides 8264 = settings: cited from earlier work
[3] = tested on: Staphylococcus saprophyticus 8454; settings: cited from earlier work
[4] = tested on: Serotype β Streptococcus 8252; settings: cited from earlier work
Streptococcus mitis 5728 = settings: cited from earlier work
[5] = tested on: Staphylococcus hominis 7835; settings: cited from earlier work
[6] = tested on: Streptococcus simulans 7866; settings: cited from earlier work
Micrococcus spp. = settings: cited from earlier work
Staphylococcus capitis = settings: cited from earlier work
[7] = tested on: Staphylococcus aureus ATCC 25923; settings: cited from earlier work
Escherichia coli B 1218 = settings: cited from earlier work
[8] = tested on: Enterobacter cloacae B 520; settings: cited from earlier work
[9] = tested on: Bacillus subtilis ATCC 6633; settings: cited from earlier work
Propionibacterium acnes [10] = settings: cited from earlier work
S. aureus = settings: by Bryskier; cited from earlier work
S. aureus ATCC 25923 = settings: by Bryskier; cited from earlier work
[11] = tested on: Staphylococcus epidermidis; settings: by Bryskier; cited from earlier work
S. pyogenes = settings: by Bryskier; cited from earlier work
Streptococcus mitis = settings: by Bryskier; cited from earlier work
Micrococcus = settings: by Bryskier; cited from earlier work
Coryneform(s) = settings: by Bryskier; cited from earlier work
B. subtilis ATCC 6633 = settings: by Bryskier; cited from earlier work
Escherichia coli = settings: by Bryskier; cited from earlier work
Enterobacter cloacae = settings: by Bryskier; cited from earlier work
Propionibacterium acnes [12] = settings: by Bryskier; cited from earlier work

Row | SMILES | MIC [1] [µg/mL] | MIC [2] [µg/mL] | MIC (Diphteroides 8264) [µg/mL] | MIC [3] [µg/mL] | MIC [4] [µg/mL] | MIC (Streptococcus mitis 5728) [µg/mL] | MIC [5] [µg/mL] | MIC [6] [µg/mL] | MIC (Micrococcus spp.) [µg/mL] | MIC (Staphylococcus capitis) [µg/mL] | MIC [7] [µg/mL] | MIC (Escherichia coli B 1218) [µg/mL] | MIC [8] [µg/mL] | MIC [9] [µg/mL] | MIC (Propionibacterium acnes [10]) [µg/mL] | other results
1 | CC1(C)S[C@@H]2[C@H](NC(=O)[C@H](N)c3ccccc3)C(=O)N2[C@H]1C(=O)O [Ampicillin] | <0.5 | <0.5 | 31.3 (≈ 89.6 µM) | <0.5 | <0.5 | 7.8 (≈ 22.3 µM) | <0.5 | <0.5 | <0.5 | <0.5 | <0.5 | 2.0 (≈ 5.72 µM) | 7.8 (≈ 22.3 µM) | <0.5 | 1.0 (≈ 2.86 µM) | MIC (S. aureus): <0.5 µg/mL; MIC (S. aureus ATCC 25923): <0.5 µg/mL; MIC [11]: <0.5 µg/mL; MIC (S. pyogenes): <0.5 µg/mL; MIC (Streptococcus mitis): 7.8 µg/mL (≈ 22.3 µM); MIC (Micrococcus): <0.5 µg/mL; MIC (Coryneform(s)): 31.3 µg/mL (≈ 89.6 µM); MIC (B. subtilis ATCC 6633): <0.5 µg/mL; MIC (Escherichia coli): 2.0 µg/mL (≈ 5.72 µM); MIC (Enterobacter cloacae): 7.8 µg/mL (≈ 22.3 µM); MIC (Propionibacterium acnes [12]): 1.0 µg/mL (≈ 2.86 µM)
2 | [H]/N=C(/N)N[C@H]1[C@H](O)[C@@H](O)[C@H](O[C@@H]2O[C@@H](C)[C@](O)(C=O)[C@H]2O[C@@H]2O[C@@H](CO)[C@H](O)[C@@H](O)[C@@H]2NC)[C@@H](N/C(N)=N\[H])[C@@H]1O [Streptomycin] | 2.0 (≈ 3.44 µM) | 2.0 (≈ 3.44 µM) | >250 | 1.0 (≈ 1.72 µM) | 3.9 (≈ 6.71 µM) | 250 (≈ 430 µM) | 2.0 (≈ 3.44 µM) | 2.0 (≈ 3.44 µM) | 3.9 (≈ 6.71 µM) | 3.9 (≈ 6.71 µM) | 3.9 (≈ 6.71 µM) | 15.6 (≈ 26.8 µM) | 7.8 (≈ 13.4 µM) | 1.0 (≈ 1.72 µM) | <0.5 | –
